Measurements reported in US20130045869A1, “COMPLEXES OF HERBICIDAL CARBOXYLIC ACIDS AND AMINE-CONTAINING POLYMERS OR OLIGOMERS” (Dow AgroSciences LLC, priority 2011, published 2013).

Assays:
[1] = Eye irritation testing; assay type: in vivo, New Zealand albino rabbit; settings: 456 gae/L, 21 days after application, most sensitive animal; for Eye irritation score, Iris: maximum 2; for Eye irritation score, Cornea: maximum 4; for Eye irritation score, Conjunctivae: maximum 10
Procedure: Eye irritation testing was done according to guideline testing requirements specified in: (1) OECD Guideline for the Testing of Chemicals, Procedure 405 (2002), (2) U.S. EPA Health Effects Test Guidelines, OPPTS 870.2400 (1998), (3) JMAFF 12-Nouan-1847 (2000) and (4) Official Journal of the European Communities, Methods for the Determination of Toxicity, Part B.5 (Eye Irritation), Directive 2004/73/ED, 29 Apr. 2004.
Test material formulations were administered to New Zealand albino rabbit (1 to 3 animals per formulation) to determine the potential to produce eye irritation. The material was applied in a single dose to the conjuctival sac of one eye of each animal. The other eye remained untreated and served as a control. Irritation of the cornea, iris and conjunctivae were evaluated 21 days after application of the test material.
The results are reported as irritation present in the cornea, iris and conjunctivae in the most sensitive animal 21 days after application. Testing was conducted with the following concentrates: (1) 2,4-D PEI complex (Lupasol® G20 complex, 456 grams acid equivalent per liter (gae/l)), (2) 2,4-D DMA (dimethyl ammonium salt, 456 gae/l), (3) 2,4-D DMEA (dimethylethyl ammonium salt, 456 gae/l), (4) 2,4-D IPA (isopropyl ammonium salt, 456 gae/l), and (5) 2,4-D TIPA (triisopropanol ammonium salt, 456 gae/l).

[2] = Relative volatility by thermo-gravimetric analysis; assay type: physicochemical; settings: TGA at 120° C.
Procedure: Using a TA Instruments (New Castle, Del.) Model TGA 2050 thermo-gravimetric analyzer, a typical thermo-gravimetric analysis (TGA) is carried out by (a) weighing out 10-20 mg of the sample, (b) loading it into an aluminum or platinum holding pan, and (c) measuring and recording the mass loss of the sample over time at a constant temperature of 120° C. The volatility of the sample is obtained as the rate of mass loss per unit time when the loss rate becomes constant (reaches steady state).
Relative volatility is defined as the ratio of the volatility of a given 2,4-D or triclopyr sample over that of the corresponding 2,4-D DMA or triclopyr triethylamine salt that was arbitrarily set at 100.

[3] = ratio to 2,4-D DMA salt set at 100
[4] = ratio to triclopyr triethylamine salt set at 100

**Q.** With CC(O)CN(CC(C)O)CC(C)O.O=C(O)COc1ccc(Cl)cc1Cl (stereo not drawn) [2,4-D TIPA] as the molecule, how does the “Eye irritation score, Iris” value [1] read?
**A.** 0

**Q.** And the “Eye irritation score, Cornea” value [1]?
**A.** 3

**Q.** What about the “Eye irritation score, Conjunctivae” value [1] of the same molecule?
**A.** 1

**Q.** With O=C(O)COc1ccc(Cl)cc1Cl [2,4-D acid tech, 2,4-dichlorophenoxyacetic acid] as the molecule, how does the Relative volatility [2, 3] read?
**A.** 249

**Q.** For CCCCC(CC)COC(=O)COc1ccc(Cl)cc1Cl (stereo not drawn) [2,4-D ethylhexyl ester], which Relative volatility [2, 3] is on record?
**A.** 1201

**Q.** Which Relative volatility [2, 4] does the source give for CCCCOCCOC(=O)COc1nc(Cl)c(Cl)cc1Cl [triclopyr butoxyethyl ester] here?
**A.** 302

**Q.** For CCN(CC)CC.O=C(O)COc1nc(Cl)c(Cl)cc1Cl [triclopyr triethylamine salt], which Relative volatility [2, 4] is on record?
**A.** 100

**Q.** With O=C(O)COc1nc(Cl)c(Cl)cc1Cl [triclopyr acid] as the molecule, how does the Relative volatility [2, 4] read?
**A.** 135

**Q.** What does the source list for CC(C)N.O=C(O)COc1ccc(Cl)cc1Cl [2,4-D IPA]?
**A.** Eye irritation score, Iris [1]: 0; Eye irritation score, Cornea [1]: 4; Eye irritation score, Conjunctivae [1]: 6

**Q.** What does the source list for CNC.O=C(O)COc1ccc(Cl)cc1Cl [2,4-D DMA salt, 2,4-D dimethylamine (DMA) salt]?
**A.** Relative volatility [2, 3]: 100; Eye irritation score, Iris [1]: 1; Eye irritation score, Cornea [1]: 3; Eye irritation score, Conjunctivae [1]: 3
